Test [1] concerns Heterorhabditis bacteriophora. The experiment in a line: Nematicidal activity against J3 juveniles of Heterorhabditis bacteriophora assessed as mortality at 200 mg/l after 168 hr relative to control. In kind it is functional.
Test [2] deals with Caenorhabditis elegans. The experiment in a line: Inhibition of […] in Caenorhabditis elegans N2 Bristol assessed as increase in pharyngeal musle contraction frequency at 50 mg/l after 6 hr relative to control. The test is classed as functional, organism-based.
Test [3] relates to Caenorhabditis elegans. The experiment in a line: Inhibition of […] in Caenorhabditis elegans N2 Bristol assessed as increase in pharyngeal musle contraction frequency at 50 mg/l after 1 hr relative to control. In kind it is functional.
In test [4] the test system is Meloidogyne incognita. The experiment in a line: Ovicidal activity against Meloidogyne incognita (root-knot nematode) eggs after 168 hr. The test is classed as functional, organism-based.
The subject of test [5] is Meloidogyne incognita. The experiment in a line: Ovicidal activity against Meloidogyne incognita (root-knot nematode) eggs after 120 hr. In kind it is functional, organism-based.
The subject of test [6] is Meloidogyne incognita. The experiment in a line: Ovicidal activity against Meloidogyne incognita (root-knot nematode) eggs assessed as inhibition of egg hatching at 40 mg/l after 120 hr relative to control. In kind it is functional.
Test [7] concerns Meloidogyne incognita. The experiment in a line: Ovicidal activity against Meloidogyne incognita (root-knot nematode) eggs assessed as inhibition of egg hatching at 40 mg/l after 24 to 72 hr relative to control. In kind it is functional. As to conditions: read-out: mortality.
The test system of test [8] is Meloidogyne incognita. The experiment in a line: Nematicidal activity against J2 juveniles of Meloidogyne incognita (root-knot nematode) after 168 hr relative to control. The test is classed as functional.
The test system of test [9] is Meloidogyne incognita. The experiment in a line: Nematicidal activity against J2 juveniles of Meloidogyne incognita (root-knot nematode) after 120 hr relative to control. The test is classed as functional.
The subject of test [10] is Meloidogyne incognita. The experiment in a line: Nematicidal activity against J2 juveniles of Meloidogyne incognita (root-knot nematode) after 72 hr relative to control. In kind it is functional.
Test [11] deals with Meloidogyne incognita. The experiment in a line: Nematicidal activity against J2 juveniles of Meloidogyne incognita (root-knot nematode) assessed as mortality at 40 mg/l after 48 hr relative to control. In kind it is functional.
Test [12] concerns Caenorhabditis elegans. The experiment in a line: Nematicidal activity against adult Caenorhabditis elegans N2 Bristol after 168 hr. The test is classed as functional.
The test system of test [13] is Caenorhabditis elegans. The experiment in a line: Nematicidal activity against adult Caenorhabditis elegans N2 Bristol after 120 hr. The test is classed as functional.
Test [14] concerns Caenorhabditis elegans. The experiment in a line: Nematicidal activity against adult Caenorhabditis elegans N2 Bristol after 48 hr. In kind it is functional.
In test [15] the test system is Caenorhabditis elegans. The experiment in a line: Nematicidal activity against adult Caenorhabditis elegans N2 Bristol after 72 hr. The test is classed as functional.
Test [16] concerns Caenorhabditis elegans. The experiment in a line: Nematicidal activity against adult Caenorhabditis elegans N2 Bristol assessed as mortality at 40 mg/l after 24 hr relative to control. In kind it is functional.
Test [17] has as its system Caenorhabditis elegans. The experiment in a line: Nematicidal activity against adult Caenorhabditis elegans N2 Bristol assessed as mortality at 40 mg/l after 120 hr relative to control. In kind it is functional.
The test system of test [18] is Caenorhabditis elegans. The experiment in a line: Nematicidal activity against adult Caenorhabditis elegans N2 Bristol assessed as mortality at 40 mg/l after 48 hr relative to control. The test is classed as functional.
Test [19] deals with Bursaphelenchus xylophilus. The experiment in a line: Nematicidal activity against Bursaphelenchus xylophilus assessed as mortality at 1 mg/l after 48 hr relative to control. The test is classed as functional.
The target of test [20] is T1, Chloride channel protein clh-3 (Caenorhabditis elegans) (UniProt Q9BMK9).
T1 sequence (whole entry): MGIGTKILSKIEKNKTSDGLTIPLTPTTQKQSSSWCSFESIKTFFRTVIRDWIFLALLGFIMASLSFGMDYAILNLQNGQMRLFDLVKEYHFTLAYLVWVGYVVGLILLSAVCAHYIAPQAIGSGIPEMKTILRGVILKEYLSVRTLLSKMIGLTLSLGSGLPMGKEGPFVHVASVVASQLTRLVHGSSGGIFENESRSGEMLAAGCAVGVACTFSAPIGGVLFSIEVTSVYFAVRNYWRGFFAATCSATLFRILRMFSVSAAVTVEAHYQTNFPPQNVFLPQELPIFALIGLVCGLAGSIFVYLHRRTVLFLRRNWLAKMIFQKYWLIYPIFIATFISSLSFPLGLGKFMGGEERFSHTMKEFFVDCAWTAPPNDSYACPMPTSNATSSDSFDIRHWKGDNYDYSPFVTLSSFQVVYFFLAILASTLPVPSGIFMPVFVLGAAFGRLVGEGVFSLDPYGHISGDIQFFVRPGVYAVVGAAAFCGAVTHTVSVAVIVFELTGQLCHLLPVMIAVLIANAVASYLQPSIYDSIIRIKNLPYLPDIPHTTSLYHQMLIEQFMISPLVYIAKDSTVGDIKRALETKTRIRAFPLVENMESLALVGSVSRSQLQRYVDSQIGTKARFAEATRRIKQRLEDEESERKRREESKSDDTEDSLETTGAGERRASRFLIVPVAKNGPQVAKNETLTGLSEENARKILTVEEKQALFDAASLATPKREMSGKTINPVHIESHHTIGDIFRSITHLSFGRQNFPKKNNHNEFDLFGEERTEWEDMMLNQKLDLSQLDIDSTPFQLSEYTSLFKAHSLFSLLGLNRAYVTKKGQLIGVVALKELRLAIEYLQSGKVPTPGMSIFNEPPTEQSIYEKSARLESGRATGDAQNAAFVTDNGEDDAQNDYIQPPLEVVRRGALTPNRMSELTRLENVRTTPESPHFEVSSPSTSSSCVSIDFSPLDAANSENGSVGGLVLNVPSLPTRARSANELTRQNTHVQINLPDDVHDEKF
As to conditions: 100 uM.
Description: Inhibition of CECLC-3 in Caenorhabditis elegans oocyte membrane at 100 uM

The subject of test [21] is Heterorhabditis bacteriophora. The experiment in a line: Nematicidal activity against J3 juveniles of Heterorhabditis bacteriophora assessed as mortality at 200 mg/l after 24 hr relative to control. The test is classed as functional.
Test [22] deals with Heterorhabditis bacteriophora. The experiment in a line: Nematicidal activity against J3 juveniles of Heterorhabditis bacteriophora assessed as mortality at < 200 mg/l. In kind it is functional, organism-based.
The test system of test [23] is Caenorhabditis elegans. The experiment in a line: Nematicidal activity against adult Caenorhabditis elegans after 24 hr. The test is classed as functional.
Test [24] deals with Caenorhabditis elegans. The experiment in a line: Nematicidal activity against J4 juvenile of Caenorhabditis elegans after 24 hr. In kind it is functional.

In brackets after ≈: the same amount, converted by molar mass. Activity calls are given as the source filed them. The rule behind the calls is not given here. Bounds are passed on as bounds.

As for `O=S(=O)(O)c1cc(N=C=S)ccc1/C=C/c1ccc(N=C=S)cc1S(=O)(=O)O`, the mortality (in general, the share of the test organisms that died) at 200 µg/mL in [1] is less than 15%. Moreover, the inhibition (commonly the change of the read-out against control, counted positive when it falls) with Caenorhabditis elegans [2] is “inactive”. Moreover, the inhibition at 50 µg/mL with Caenorhabditis elegans [3] is 20%. For the same compound, the values for the EC50 with Meloidogyne incognita [4] and with Meloidogyne incognita [5] were 23.4 µg/mL (≈ 51.6 µM) and 29.1 µg/mL (≈ 64.1 µM), respectively. The inhibition at 40 µg/mL with Meloidogyne incognita [6] was 50%. In addition, in the test with Meloidogyne incognita [7], the inhibition of egg hatching at 40 µg/mL is less than 50%. Moreover, the 50% lethal concentration (LC50) – broadly, the concentration that kills 50% of the test population – in the test on Meloidogyne incognita [8] was 4.46 µg/mL (≈ 9.81 µM); in the test with Meloidogyne incognita [9] it was 7.48 µg/mL (≈ 16.5 µM); in the test with Meloidogyne incognita [10], 15.4 µg/mL (≈ 33.8 µM); in the test on Caenorhabditis elegans [12] it was 3.14 µg/mL (≈ 6.91 µM); in the test with Caenorhabditis elegans [13] it was 4.46 µg/mL (≈ 9.81 µM); in the test on Caenorhabditis elegans [14], 29.6 µg/mL (≈ 65.2 µM). In addition, the LC50 in the test with Caenorhabditis elegans [15] was found to be 8.9 µg/mL (≈ 19.6 µM). In addition, the mortality at 40 µg/mL with Meloidogyne incognita [11] is less than 50%; in the test on Caenorhabditis elegans [16], less than 50%; in the test with Caenorhabditis elegans [17] it was 100%; in the test on Caenorhabditis elegans [18] it was more than 50%.

Turning to `COc1ccc(/C=C/c2ccccc2O)cc1` [2-hydroxy-4'-methoxystilbene], the mortality at 1 µg/mL in [19] is 95%.

In the case of `O=C(O)c1cc([N+](=O)[O-])ccc1NCCCc1ccccc1` [5-NITRO-2-PHENYLPROPYLAMINOBENZOIC ACID [NPPB]], in test [1], the mortality at 200 µg/mL was less than 15%. Besides, the inhibition entry with Caenorhabditis elegans [2] is “inactive”. In addition, the inhibition at 50 µg/mL in the test with Caenorhabditis elegans [3] came to 20%. In addition, the concentration giving a half-maximal response (EC50) (in general, the concentration giving half of the maximal effect) in the test on Meloidogyne incognita [4] was 34.1 µg/mL (≈ 113 µM); in the test with Meloidogyne incognita [5], 46.5 µg/mL (≈ 155 µM). Moreover, the inhibition at 40 µg/mL in the test with Meloidogyne incognita [6] was found to be 50%. In the test with Meloidogyne incognita [7], the inhibition of egg hatching at 40 µg/mL was less than 50%. In addition, the median lethal concentration (LC50) is 5.27 µg/mL (≈ 17.5 µM) in the test on Meloidogyne incognita [8]; 8.09 µg/mL (≈ 26.9 µM) with Meloidogyne incognita [9]; 20.1 µg/mL (≈ 66.9 µM) in the test with Meloidogyne incognita [10]; 4.56 µg/mL (≈ 15.2 µM) with Caenorhabditis elegans [12]; 7.44 µg/mL (≈ 24.8 µM) in the test on Caenorhabditis elegans [13]; 38.4 µg/mL (≈ 128 µM) with Caenorhabditis elegans [14]. Also, the median lethal concentration (LC50) in the test on Caenorhabditis elegans [15] was determined as 15.9 µg/mL (≈ 52.8 µM). Also, the mortality at 40 µg/mL in the test with Meloidogyne incognita [11] is less than 50%; in the test with Caenorhabditis elegans [16] it was less than 50%; with Caenorhabditis elegans [17], 100%; in the test with Caenorhabditis elegans [18] it was more than 50%. Moreover, the inhibition in test [20] was determined as 90%.

For the compound `O=C(O)c1c2ccccc2cc2ccccc12` [ANTHRACENE-9-CARBOXYLIC ACID], the mortality at 200 µg/mL in [1] is less than 15%. In the test with Caenorhabditis elegans [2], the inhibition entry was “inactive”. In addition, the inhibition at 50 µg/mL with Caenorhabditis elegans [3] was determined as 20%. This compound displayed a half-maximal effective concentration (EC50) in the test on Meloidogyne incognita [4] of 48 µg/mL (≈ 216 µM). In the test with Meloidogyne incognita [6], the inhibition at 40 µg/mL is less than 50%. In the test on Meloidogyne incognita [7], the inhibition of egg hatching at 40 µg/mL was less than 50%. The LC50 worked out at 6.27 µg/mL (≈ 28.2 µM) in the test on Meloidogyne incognita [8]; 11.2 µg/mL (≈ 50.6 µM) in the test on Meloidogyne incognita [9]; 26.8 µg/mL (≈ 120 µM) in the test with Meloidogyne incognita [10]; 5.35 µg/mL (≈ 24.1 µM) in the test with Caenorhabditis elegans [12]; 8.44 µg/mL (≈ 38 µM) in the test with Caenorhabditis elegans [13]; 42.7 µg/mL (≈ 192 µM) in the test on Caenorhabditis elegans [14]. In the test with Caenorhabditis elegans [15], this compound gave an LC50 of 17.8 µg/mL (≈ 80 µM). Further, the mortality at 40 µg/mL was less than 50% in the test with Meloidogyne incognita [11], less than 50% with Caenorhabditis elegans [16], 100% in the test on Caenorhabditis elegans [17] and 45% with Caenorhabditis elegans [18].

Regarding `CCOP(=S)(OCC)Oc1nc(Cl)c(Cl)cc1Cl` [CHLORPYRIFOS], the mortality at 200 µg/mL is 100% in [21] and less than 15% in test [1]. The result in [22] was Active.

For `C[C@@]1(C2CCCC2)Cc2cc(OCCC(=O)O)c(Cl)c(Cl)c2C1=O` [INDANYLOXYACETIC ACID], the inhibition entry in the test on Caenorhabditis elegans [2] was “inactive”.

`CC(C)c1c(O)cc(/C=C/c2ccccc2)cc1O` [TAPINAROF]: the 50% lethal concentration (LC50) in the test with Caenorhabditis elegans [23] and in the test on Caenorhabditis elegans [24] was 50 µg/mL (≈ 197 µM) each time.

The values above are taken from ChEMBL document CHEMBL3046419, “Nematicidal activity of anion transport blockers against Meloidogyne incognita, Caenorhabditis elegans and Heterorhabditis bacteriophora” (Pest Manag Sci, 2008).
